Experimental data as given in US6869929B2, “Use of transcription factors for treating inflammation and other diseases” (Beth Israel Deaconess Medical Center, priority 2000, dated 2005).

Assays:
[1] = test system: ESE-1; assay: ESE-1 mRNA Northern blot in LB-12 osteoblasts; assay type: cell-based, human; conditions: LB-12 cells
Description: (§1) U-87 Mg and U-138 Mg (human glioma), THP-1 (human monocytic), RAW 264.7 (murine monocytic), LB-12 (human osteoblast-like large T antigen transformed bone marrow stromal cells), and human chondrocytes were grown and treated with cytokines as described (Apperley, J., et al. 1990. J Bone Mineral Res. 5:S93; Goldring, M. B., et al. 1994. J Clin Invest 94:2307-16; Goldring, S. R., et al. 1983. J Bone Joint Surg 65:575-84; Libermann, T. A., et al. 1987. Embo J. 6:1627-1632).
Total RNA was harvested using QIAshreder (Qiagen) and RNeasy® Mini Kit (Quiagen) or Trizol (Gibco BRL). Poly A^+ RNA was prepared with MicroPoly(A) Pure (Ambion). Northern blots (5 μg total RNA) were hybridized using a full length ESE-1 cDNA probe as described (Oettgen, P., et al. et al. 1997, Mol Cell Biol 17:4419-33.).
Osteoblasts, the bone cells responsible for bone formation, represent another connective tissue cell target of inflammatory cytokines in joint disorders (Bogoch, E. R., and E. Moran. 1998, Can J Surg 41:264-71). […] LB-12 cells were incubated for different times in the absence or presence of IL-1β. […] Since the rapid, but transient induction of ESE-1 resembles that of immediate early genes, we tested the effect of the protein synthesis inhibitor cycloheximide which superinduces expression of certain genes due to mRNA stabilization. Cycloheximide alone had no effect, but superinduced IL-1β-mediated ESE-1 mRNA expression (FIG. 11d).

[2] = test system: ESE-1; assay: ESE-1 mRNA RT-PCR in RA synovial fibroblasts; assay type: cell-based, human; conditions: for ESE-1 mRNA expression, agent alone: 4th passage RA synovial fibroblasts
Description: Tissues from patients with rheumatoid arthritis (RA) were obtained as discarded materials from total joint replacement surgery or synovectomy. RA synovial tissue samples were cultured for the generation of adherent synovial fibroblasts. Dispersed synovial tissues were prepared by a previously published method (Goldring, S. R., et al. 1983. The synovial-like membrane at the bone-cement interface in loose total hip replacements and its proposed role in bone lysis. J Bone Joint Surg 65:575-84). Cells were subjected to 2-4 passages and stimulated with IL-1β (R&D Systems) at 100 pg/ml or with TNF-α (R&D Systems) at 5 ng/ml.
(§2) cDNAs were generated from 1 μg of total RNA using Ready-To-Go™ You-prime First-Strand Beads (Amersham Pharmacia Biotech Inc). RT-PCR amplifications of 0.1 μg cDNA were carried out using a MJResearch thermal cycler PTC-100 as follows: 5 min at 94° C., 20-37 cycles of 30 sec at 94° C., 30 sec at 56° C., and 30 sec at 72° C., followed by 5 min at 72° C. (Oettgen, P., et al. 2000, J Biol Chem 275:1216-25). The sequences of the human ESE-1 primers and the primers for human GAPDH were as described (Oettgen, P., et al. 1999, J Biol Chem 274:29439-52).
The synovium in RA is comprised of heterogeneous cell populations including monocyte/macrophages, lymphocytes and synovial fibroblasts. To evaluate whether ESE-1 expression in synovial fibroblasts is regulated by proinflammatory cytokines, 4th passage synovial fibroblasts isolated from RA synovium were stimulated for different times with IL-1β in the absence or presence of indomethacin. […] They also indicate that cytokine-induced prostaglandins may modulate steady state ESE-1 mRNA levels. […] We, therefore, focused our attention in further studies on IL-1β.

[3] = test system: ESE-1; assay: ESE-1 mRNA RT-PCR in immortalized chondrocytes T/C28a2, C28/I2, C20/A4; assay type: cell-based, human; conditions: T/C28a2, C28/I2 and C20/A4 chondrocytes; 24 hours
Description: as §1, §2
To test the hypothesis that ESE-1 is a mediator of cytokine responses in non-epithelial cell types, we analyzed ESE-1 expression in response to a variety of cytokines in several connective tissue cell types. Immortalized human chondrocytes, T/C28a2, C28/I2, and C20/A4 (Goldring, M. B., et al. 1994, J Clin Invest 94:2307-16), were stimulated with IL-1β, TNF-α and IFN-γ for 24 hours. […] The kinetics of ESE-1 induction was explored in a time course experiment with T/ C28a2 chondrocytes.

[4] = test system: COL2A1 promoter; assay: COL2A1 promoter luciferase cotransfection in T/C-28a2 cells; assay type: cell-based, human; conditions: for inhibition of COL2A1/4.0 activity: T/C-28a2, pGL3 construct, highest concentrations tested
Description: The COL2A1 sequence spanning −577 to +3428 bp (Goldring M B, et al, J Cell Biochem 1994;54:85-99, 39) was cloned into the pGL2-basic (pGL2B) luciferase reporter gene vector (Promega,) and named pGL2-COL2/4.0. Deletion constructs containing −577/+125 bp, −131/+125 bp, −87/+125 bp were prepared by enzyme digestion of pGL2-COL2/4.0 using PstI, ApaI, and PuuII, followed by ligation. For the deletion constructs −45/+125 bp, −83/+7 bp, and −45/+7 bp, PCR products were generated as described (Osaki et al.) and cloned into the pGL2-Basic luciferase vector. These reporter constructs were used as templates to generate point mutations or internal deletions by PCR mutagenesis employing the oligonucleotides listed in FIG. 16 and the QuikChange™ Site-Directed Mutagenesis Kit (Stratagene, La Jolla, Calif.). DNA fragments containing point mutations were then cloned into the pGL2B vector and confirmed by DNA sequencing using a G2 primer on pGL2 DNA. Deletions were also made in the −577/+127 bp COL2A1 promoter construct using the ExSite™ PCR-Based Site-Directed Mutagenesis Kit (Stratagene).
Transient transfection experiments were carried out in C-28/I2 cells using LipofectAMINE PLUS™ Reagent (Life Technologies). Cells were seeded in 6-well tissue culture plates at 3.5×10^5 cells/well in DMEM/F12 containing 10% FCS 24 h prior to transfection. For each well, 1 μg of COL2A1-luciferase construct, 6 μl of PLUS reagent and 92 μl of serum-free DMEM/F12 were mixed and incubated for 15 min at room temperature. LipofectAMINE+ reagent (4 μl) in 100 μl of serum-free medium was then added to each reaction mixture and incubation was continued for an additional 30 min at room temperature. Finally, the transfection mixture was combined with 800 μl of serum-free medium and the lipid-nucleic acid complex was transferred to the washed cell monolayer in each well. After incubation for 4 h at 37° C., the transfection mix was diluted with an equal volume of DMEM/F12 containing 2% Nutridoma-SP, and incubation continued for 18 h in the absence or presence of IL-1β. For cotransfections, the cells were incubated for 24 h to permit expression of recombinant proteins prior to treatment with IL-1β for a further 18 h. Cell lysates were prepared by extraction with 200 μl of Reporter Lysis Buffer (Promega) and the protein content was determined using the Coomassie Plus Protein Assay Reagent (PIERCE). Luciferase activities were determined by chemiluminescence assay using the Autolumat LB953 luminometer (EG&G Berthold, Oak Ridge, Tenn.), normalized to the amount of protein. Each data point was calculated as the mean±standard deviation for three independently transfected cultures from one representative of at least three experiments. […]

[5] = test system: NOS2 promoter; assay: ESE-1 transactivation of NOS2 promoter luciferase reporter, cotransfection in RAW cells; assay type: cell-based, murine; conditions: cotransfected with ESE-1
Description: (§3) A 1516 and 265 bp fragment corresponding to nucleotides (−1485 to +31) and (−234 to +31) of the murine NOS2 gene promoter were subcloned into the PGL2 luciferase reporter(Promega).
(§4) Co-transfections of 2×10^5 RAW cells or RASMCs were carried out with 0.6 μg reporter gene construct DNA and 0.6 μg expression vector DNA using 6 μl lipofectamine (Gibco-BRL) as described (Oettgen, P., et al. 1996. Characterization of NERF, a novel transcription factor related to the Ets factor ELF-1. Mol Cell Biol 16:5091-106). The cells were harvested 16 hours after transfection and assayed for luciferase activity. Transfections for every construct were performed independently in duplicates and repeated 3 times with two different plasmid preparations with similar results. Cotransfection of a second plasmid for determination of transfection efficiency was omitted because potential artifacts with this technique have been reported and because many commonly used viral promoters contain potential binding sites for ets factors (Farr, A., and A. Roman. 1992. A pitfall of using a second plasmid to determine transfection efficiency. Nucleic Acids Res 20:920).
The ability of ESE-1 DN 1 to block transactivation of the NOS2 promoter was tested in RAW cells. Cotransfection of ESE-1 with the NOS2 promoter led to an approximate 12-fold increase in transactivation. […]

[6] = test system: NOS2 promoter; assay: LPS (endotoxin) induction of NOS2 promoter luciferase reporter in RAW cells; assay type: cell-based, murine
Description: as §3, §4
In the presence of LPS, the ESE-1 DN1 protein blocked induction of the NOS2 promoter by LPS by approximately 70-75%. (See FIG. 21C).

C[C@]12CCC(=O)C=C1CC[C@@H]1[C@@H]2[C@@H](O)C[C@@]2(C)[C@H]1CC[C@]2(O)C(=O)CO [Hydrocortisone]
IL-1β-mediated ESE-1 mRNA expression in presence of agent [1]: strongly enhanced | ESE-1 mRNA expression, agent alone ([1]; 1, 2, 6, 24 hours): did not induce

TNF-α
ESE-1 mRNA expression, agent alone [2]: minimal ESE-1 induction | ESE-1 expression [3]: stimulated ESE-1 expression in T/ C28a2 cells to similar levels as IL-1β, but only weakly in C28/I2 and C20/A4 cells

pCI-ELF1: expression vector for the ETS factor ELF-1
inhibition of COL2A1/4.0 activity [4]: 65%

ESE-3: ESE family Ets factor overexpressed by cotransfection
inhibition of pGL2-COL2/4.0 ([4]; highest concentration tested): ~60%

IFN-γ: cytokine tested on chondrocytes
ESE-1 expression [3]: failed to induce ESE-1 expression

COc1ccc2c(c1)c(CC(=O)O)c(C)n2C(=O)c1ccc(Cl)cc1 [indomethacin]
ESE-1 mRNA expression, agent alone [2]: did not express detectable ESE-1 mRNA | IL-1β-induced ESE-1 mRNA levels in presence of agent ([2]; RA synovial fibroblasts, 6 hours, 24 hours, 5 days): stabilized and did not decline even after 5 days

pCI-NERF2: expression vector for the ETS factor NERF-2
inhibition of COL2A1/4.0 activity [4]: 40%

B1: ESE-1 DN1: dominant negative ESE-1 protein lacking amino acids 26 through 192, expressed from pCI plasmid (SEQ ID NO: 39) (protein, listed as Homo sapiens)
chain: MAATCEISNIFSNYFSAMYSSEDSTAGTGASRSSHSSDSGGSDVDLDPTDGKLFPSDGFRDCKKGDPKHGKRKRGRPRKLSKEYWDCLEGKKSKHAPRGTHLWEFIRDILIHPELNEGLMKWENRHEGVFKFLRSEAVAQLWGQKKKNSNMTYEKLSRAMRYYYKREILERVDGRRLVYKFGKNSSGWKEEEVLQSRN
ESE-1 transactivation of the NOS2 promoter blocked by [5]: 60-70% | induction of the NOS2 promoter by LPS blocked by ([6]; in the presence of LPS): 70-75% | basal NOS2 promoter activity ([6]; prior to LPS induction): slight reduction
